In one experiment the test system is interferon (α). Briefly: Cytokine induction in human cells: interferon (α) by ELISA. It counts as cell-based. Conditions: human PBMCs, 18 to 24 hours incubation, ELISA of culture supernatant, read-out: Lowest Effective Concentration (μM) Interferon. Background: ELISA stands for enzyme-linked immunosorbent assay.
Experiment [1] concerns tumor necrosis factor (α). Briefly: Cytokine induction in human cells: tumor necrosis factor (α) by ELISA. It counts as cell-based. The note with it: human PBMCs, 18 to 24 hours incubation, ELISA of culture supernatant, read-out: Lowest Effective Concentration (μM) Tumor Necrosis Factor.

The structures appear in SMILES notation. Where two headings read alike, the source gives them in different places.

For the compound `CCCCc1nc2c(N)nc3ccccc3c2n1CCCCNS(C)(=O)=O` [Example 6, N^1-[4-(4-Amino-2-butyl-1H-imidazo[4,5-c]quinolin-1-yl)butyl]methanesulfonamide], the minimal effective concentration in the experiment on interferon (α) was 0.00017 µM; in experiment [1] it was 1.11 µM.

Consider `CCCCS(=O)(=O)NCCCCn1cnc2c(N)nc3ccccc3c21` [Example 13, N^1-[4-(4-Amino-1H-imidazo[4,5-c]quinolin-1-y)butyl]-1-butanesulfonamide], for which the minimal effective concentration with interferon (α) (Homo sapiens, PBMC) was 10 µM; in experiment [1] (Homo sapiens, PBMC), greater than 30 µM.

For `CCCCc1nc2c(N)nc3ccccc3c2n1CCNS(=O)(=O)CCC` [Example 17], the minimal effective concentration in the experiment on interferon (α) (Homo sapiens, PBMC) is 1.11 µM; in experiment [1] (Homo sapiens, PBMC), 3.33 µM.

For the compound `CCCCCCCCS(=O)(=O)NCCn1c(CCCC)nc2c(N)nc3ccccc3c21` [Example 18], the minimal effective concentration with interferon (α) (Homo sapiens, PBMC) is 3.33 µM; in experiment [1] (Homo sapiens, PBMC), greater than 30 µM.

`CCCCc1nc2c(N)nc3ccccc3c2n1CCNS(=O)(=O)c1cccs1` [Example 19]: the minimal effective concentration in the experiment with interferon (α) (Homo sapiens, PBMC) came out at 0.12 µM; in experiment [1] (Homo sapiens, PBMC), 3.33 µM.

With `CCCCc1nc2c(N)nc3ccccc3c2n1CCNS(=O)(=O)c1ccccc1` [Example 20], the minimal effective concentration with interferon (α) (Homo sapiens, PBMC) was found to be 0.12 µM; in experiment [1] (Homo sapiens, PBMC) it was 3.33 µM.

In the case of `CCCCc1nc2c(N)nc3ccccc3c2n1CCNS(=O)(=O)c1ccc(Br)cc1` [Example 21], the minimal effective concentration turned out to be 1.11 µM in the experiment with interferon (α) (Homo sapiens, PBMC) and 30 µM in experiment [1] (Homo sapiens, PBMC).

For `CCCCc1nc2c(N)nc3ccccc3c2n1CCNS(=O)(=O)c1ccc(Cl)c(Cl)c1` [Example 22], the minimal effective concentration is 0.37 µM with interferon (α) (Homo sapiens, PBMC) and greater than 30 µM in experiment [1] (Homo sapiens, PBMC).

Turning to `CCCCc1nc2c(N)nc3ccccc3c2n1CCNS(=O)(=O)c1ccc(C)cc1` [Example 23], the minimal effective concentration in the experiment with interferon (α) (Homo sapiens, PBMC) amounted to 0.12 µM; in experiment [1] (Homo sapiens, PBMC), 10 µM.

Take `CCCCc1nc2c(N)nc3ccccc3c2n1CCNS(=O)(=O)c1cc(Br)ccc1OC` [Example 24]: the minimal effective concentration in the experiment on interferon (α) (Homo sapiens, PBMC) was 0.12 µM; in experiment [1] (Homo sapiens, PBMC), 30 µM.

Take `CCCCc1nc2c(N)nc3ccccc3c2n1CCNS(=O)(=O)c1ccc(C(C)(C)C)cc1` [Example 25]: the minimal effective concentration with interferon (α) (Homo sapiens, PBMC) is 3.33 µM; in experiment [1] (Homo sapiens, PBMC), greater than 30 µM.

As to `CCCCc1nc2c(N)nc3ccccc3c2n1CCNS(=O)(=O)c1c(C)cc(C)cc1C` [Example 26], the minimal effective concentration was 10 µM with interferon (α) (Homo sapiens, PBMC) and greater than 30 µM in experiment [1] (Homo sapiens, PBMC).

Turning to `CCCCc1nc2c(N)nc3ccccc3c2n1CCNS(=O)(=O)c1ccc(OC)cc1` [Example 27], the minimal effective concentration in the experiment with interferon (α) (Homo sapiens, PBMC) is 1.11 µM; in experiment [1] (Homo sapiens, PBMC), 30 µM.

`CCCCc1nc2c(N)nc3ccccc3c2n1CCNS(=O)(=O)Cc1ccccc1` [Example 28]: the minimal effective concentration with interferon (α) (Homo sapiens, PBMC) was found to be 1.11 µM; in experiment [1] (Homo sapiens, PBMC), 30 µM.

Consider `CCCCc1nc2c(N)nc3ccccc3c2n1CCNS(=O)(=O)/C=C/c1ccccc1` [Example 29], for which the minimal effective concentration in the experiment on interferon (α) (Homo sapiens, PBMC) was 0.37 µM; in experiment [1] (Homo sapiens, PBMC) it was 10 µM.

Take `CCCCc1nc2c(N)nc3ccccc3c2n1CCNS(=O)(=O)c1cccc2cccnc12` [Example 30]: the minimal effective concentration with interferon (α) (Homo sapiens, PBMC) was 1.11 µM; in experiment [1] (Homo sapiens, PBMC), greater than 30 µM.

On to `CCCCc1nc2c(N)nc3ccccc3c2n1CCNS(=O)(=O)c1cccc2ccccc12` [Example 31], for which the minimal effective concentration in the experiment on interferon (α) (Homo sapiens, PBMC) was 1.11 µM; in experiment [1] (Homo sapiens, PBMC), greater than 30 µM.

Take `CCCCc1nc2c(N)nc3ccccc3c2n1CCNS(=O)(=O)c1ccc2ccccc2c1` [Example 32]: the minimal effective concentration in the experiment on interferon (α) (Homo sapiens, PBMC) is 1.11 µM; in experiment [1] (Homo sapiens, PBMC), greater than 30 µM.

Consider `CCCCc1nc2c(N)nc3ccccc3c2n1CCNS(=O)(=O)c1cccc2c(N(C)C)cccc12` [Example 33], for which the minimal effective concentration was 1.11 µM with interferon (α) (Homo sapiens, PBMC) and 10 µM in experiment [1] (Homo sapiens, PBMC).

On to `CCCCc1nc2c(N)nc3ccccc3c2n1CCCCNS(C)(=O)=O` [Example 36], for which the minimal effective concentration is 0.0015 µM in the experiment on interferon (α) and 3.33 µM in experiment [1].

Take `CCCCc1nc2c(N)nc3ccccc3c2n1CCCCNS(=O)(=O)c1ccc(OC)cc1` [Example 37]: the minimal effective concentration in the experiment with interferon (α) (Homo sapiens, PBMC) turned out to be 0.01 µM; in experiment [1] (Homo sapiens, PBMC) it was 1.11 µM.

Turning to `CCCCc1nc2c(N)nc3ccccc3c2n1CCCCNS(=O)(=O)C(C)C` [Example 38], the minimal effective concentration in the experiment on interferon (α) (Homo sapiens, PBMC) was 0.0015 µM; in experiment [1] (Homo sapiens, PBMC), 0.37 µM.

For `CCCCc1nc2c(N)nc3ccccc3c2n1CCCCNS(=O)(=O)c1ccc(C)cc1` [Example 40], the minimal effective concentration in the experiment on interferon (α) (Homo sapiens, PBMC) is 0.0015 µM; in experiment [1] (Homo sapiens, PBMC), 3.33 µM.

As for `CCCCc1nc2c(N)nc3ccccc3c2n1CCCCNS(=O)(=O)c1cccc2ccccc12` [Example 41], the minimal effective concentration is 0.01 µM in the experiment with interferon (α) (Homo sapiens, PBMC) and greater than 30 µM in experiment [1] (Homo sapiens, PBMC).

Consider `CCCCc1nc2c(N)nc3ccccc3c2n1CCCCNS(=O)(=O)c1ccc2ccccc2c1` [Example 42], for which the minimal effective concentration was 0.01 µM in the experiment on interferon (α) (Homo sapiens, PBMC) and greater than 30 µM in experiment [1] (Homo sapiens, PBMC).

In the case of `CCCCc1nc2c(N)nc3ccccc3c2n1CCCCNS(=O)(=O)c1cccc2cccnc12` [Example 43], the minimal effective concentration is 0.04 µM in the experiment on interferon (α) (Homo sapiens, PBMC) and greater than 30 µM in experiment [1] (Homo sapiens, PBMC).

On to `CCCCc1nc2c(N)nc3ccccc3c2n1CCCCNS(=O)(=O)c1cccs1` [Example 44], for which the minimal effective concentration with interferon (α) is on record as 0.0015 µM; in experiment [1], 1.11 µM.

Take `CCCCc1nc2c(N)nc3ccccc3c2n1CCCCNS(=O)(=O)c1c(C)cc(C)cc1C` [Example 45]: the minimal effective concentration in the experiment on interferon (α) (Homo sapiens, PBMC) is 0.37 µM; in experiment [1] (Homo sapiens, PBMC) it was greater than 30 µM.

`CCCCc1nc2c(N)nc3ccccc3c2n1CCCCNS(=O)(=O)c1ccc(I)cc1` [Example 46]: the minimal effective concentration in the experiment on interferon (α) (Homo sapiens, PBMC) was 0.37 µM; in experiment [1] (Homo sapiens, PBMC) it was greater than 30 µM.

As to `CCCCc1nc2c(N)nc3ccccc3c2n1CCCCNS(=O)(=O)c1ccc(C(C)(C)C)cc1` [Example 47], the minimal effective concentration is 0.37 µM in the experiment with interferon (α) (Homo sapiens, PBMC) and greater than 30 µM in experiment [1] (Homo sapiens, PBMC).

As to `CCCCc1nc2c(N)nc3ccccc3c2n1CCCCNS(=O)(=O)c1ccc(Cl)c(Cl)c1` [Example 48], the minimal effective concentration with interferon (α) (Homo sapiens, PBMC) worked out at 0.37 µM; in experiment [1] (Homo sapiens, PBMC), 10 µM.

For `CCCCc1nc2c(N)nc3ccccc3c2n1CCCCNS(=O)(=O)/C=C/c1ccccc1` [Example 50], the minimal effective concentration in the experiment with interferon (α) (Homo sapiens, PBMC) was 0.12 µM; in experiment [1] (Homo sapiens, PBMC), greater than 30 µM.

Turning to `CCCCc1nc2c(N)nc3ccccc3c2n1CCCCNS(=O)(=O)CCC` [Example 51], the minimal effective concentration in the experiment with interferon (α) (Homo sapiens, PBMC) came to 0.0015 µM; in experiment [1] (Homo sapiens, PBMC), 0.37 µM.

For the compound `CCCCc1nc2c(N)nc3ccccc3c2n1CCCCNS(=O)(=O)c1cc(Br)ccc1OC` [Example 52], the minimal effective concentration with interferon (α) worked out at 0.12 µM; in experiment [1] (Homo sapiens, PBMC), 10 µM.

Consider `CCCCc1nc2c(N)nc3ccccc3c2n1CCCCNS(=O)(=O)C(F)(F)F` [Example 53], for which the minimal effective concentration amounted to 0.01 µM with interferon (α) (Homo sapiens, PBMC) and 3.33 µM in experiment [1] (Homo sapiens, PBMC).

`CCCS(=O)(=O)NCCCCn1cnc2c(N)nc3c(c21)CCCC3` [Example 54]: the minimal effective concentration with interferon (α) (Homo sapiens, PBMC) is 10 µM; in experiment [1] (Homo sapiens, PBMC) it was greater than 30 µM.

Consider `CC(C)S(=O)(=O)NCCCCn1cnc2c(N)nc3c(c21)CCCC3` [Example 55], for which the minimal effective concentration was 3.33 µM in the experiment on interferon (α) (Homo sapiens, PBMC) and greater than 30 µM in experiment [1] (Homo sapiens, PBMC).
